The values that follow are results of earlier work, collected in patent publication US20140154783A1, “BIOPROCESSING” (priority 2009, published 2014).

The subject of series [1] is influenza A (avian plague virus). Particulars: high concentrations; chick embryo fibroblasts infected with influenza A (avian plague virus); Klenk et al. 1972.
For a further series, the target named is neuraminidase. Particulars: influenza-infected MDCK cells; Barrere et al. 1997; read-out: Ki, reversible inhibition of neuraminidase.

Consider `O=CC[C@@H](O)[C@H](O)[C@H](O)CO` [2-deoxy-D-glucose], for which the “formation of hemagglutinin, neuraminidase, and mature virions” value in series [1] is reported as “inhibited”.

Take `COc1cc(C(F)F)ccc1OC1(C(=O)O)CC(O)C(NC(C)=O)C(C(O)C(O)CO)O1` (stereo not drawn) [4-difluoromethyl-2-methoxy-phenyl-α-ketoside of N-acetylneuraminic acid]: the Ki (commonly a measure of affinity in units of concentration, obtained from inhibition or displacement) on neuraminidase was 80 µM. With `N[C@H]1C(O)O[C@H](CO)[C@@H](O)[C@@H]1O` (stereo partly drawn) [D-glucosamine], the “formation of hemagglutinin, neuraminidase, and mature virions” value in series [1] is “inhibited”.
